Data published in ChEMBL document CHEMBL3217456 (Medchemcomm, 2014).
Activity calls are given as the source filed them. The rule behind the calls is not given here.

Assays:
Histamine H4 receptor [1] = molecular target: T1, Histamine H4 receptor (Homo sapiens, UniProt Q9H3N8); assay: Intrinsic activity at human recombinant histamine H4 receptor-RGS19 fusion protein expressed in Sf9 cells coexpressing Galphai2,Gbeta1gamma2 preincubated for 2 mins before [gamma32P]GTP addition measured after 20 mins by steady-state GTPase activity assay relative to histamine
[2] = molecular target: Histamine H1 receptor (Homo sapiens) (UniProt P35367); assay: (§1) Antagonist activity at human recombinant histamine H1 receptor expressed in Sf9 cells coexpressing RGS4 assessed as inhibition of histamine-induced […] hydrolysis preincubated for 2 mins before [gamma32P]GTP addition measured after 20 mins by steady-state GTPase activity assay; assay type: functional
Histamine H2 receptor [3] = molecular target: T2, Histamine H2 receptor (Homo sapiens, UniProt P25021); assay: Intrinsic activity at human recombinant histamine H2 receptor-Gsalphas fusion protein expressed in Sf9 cells assessed as [35S]GTPgammaS binding at 10 uM after 90 mins by liquid scintillation counting relative to histamine; assay type: functional
Histamine H2 receptor [4] = molecular target: T2, Histamine H2 receptor; assay: Antagonist activity at human recombinant histamine H2 receptor-Gsalphas fusion protein expressed in Sf9 cells assessed as inhibition of histamine-induced [35S]GTPgammaS binding after 90 mins by liquid scintillation counting; assay type: functional
Histamine H3 receptor [5] = molecular target: T3, Histamine H3 receptor (Homo sapiens, UniProt Q9Y5N1); assay: Antagonist activity at human recombinant histamine H3 receptor expressed in Sf9 cells coexpressing Galphai2,Gbeta1gamma2 and RGS4 assessed as inhibition of histamine-induced [35S]GTPgammaS binding after 90 mins by liquid scintillation counting; assay type: functional
Histamine H4 receptor [6] = molecular target: T1, Histamine H4 receptor; assay: Agonist activity at human recombinant histamine H4 receptor-RGS19 fusion protein expressed in Sf9 cells coexpressing Galphai2,Gbeta1gamma2 assessed as [35S]GTPgammaS binding after 90 mins by liquid scintillation counting; assay type: functional
[7] = molecular target: Histamine H1 receptor (Homo sapiens) (UniProt P35367); assay: Intrinsic activity at human recombinant histamine H1 receptor expressed in Sf9 cells coexpressing RGS4 preincubated for 2 mins before [gamma32P]GTP addition measured after 20 mins by steady-state GTPase activity assay relative to histamine
Histamine H3 receptor [8] = molecular target: T3, Histamine H3 receptor; assay: Intrinsic activity at human recombinant histamine H3 receptor expressed in Sf9 cells coexpressing Galphai2,Gbeta1gamma2 and RGS4 assessed as [35S]GTPgammaS binding at 10 uM after 90 mins by liquid scintillation counting relative to histamine; assay type: functional
Histamine H4 receptor [9] = molecular target: T1, Histamine H4 receptor; assay: Antagonist activity at human recombinant histamine H4 receptor-RGS19 fusion protein expressed in Sf9 cells coexpressing Galphai2,Gbeta1gamma2 assessed as inhibition of histamine-induced [35S]GTPgammaS binding after 90 mins by liquid scintillation counting; assay type: functional
Histamine H4 receptor [10] = molecular target: T1, Histamine H4 receptor; assay: Intrinsic activity at human recombinant histamine H4 receptor-RGS19 fusion protein expressed in Sf9 cells coexpressing Galphai2,Gbeta1gamma2 assessed as [35S]GTPgammaS binding at 10 uM after 90 mins by liquid scintillation counting relative to histamine; assay type: functional
[11] = molecular target: Histamine H1 receptor (Homo sapiens) (UniProt P35367); conditions: Sf9
Histamine H3 receptor [12] = molecular target: T3, Histamine H3 receptor; assay: Agonist activity at human recombinant histamine H3 receptor expressed in Sf9 cells coexpressing Galphai2,Gbeta1gamma2 and RGS4 assessed as [35S]GTPgammaS binding after 90 mins by liquid scintillation counting; assay type: functional
Histamine H3 receptor [13] = molecular target: T3, Histamine H3 receptor; assay: Intrinsic activity at human recombinant histamine H3 receptor expressed in Sf9 cells coexpressing Galphai2,Gbeta1gamma2 and RGS4 preincubated for 2 mins before [gamma32P]GTP addition measured after 20 mins by steady-state GTPase activity assay relative to histamine
Histamine H2 receptor [14] = molecular target: T2, Histamine H2 receptor; assay: (§2) Antagonist activity at human recombinant histamine H2 receptor-Gsalphas fusion protein expressed in Sf9 cells assessed as inhibition of histamine-induced […] hydrolysis preincubated for 2 mins before [gamma32P]GTP addition measured after 20 mins by steady-state GTPase activity assay; assay type: functional
Histamine H3 receptor [15] = molecular target: T3, Histamine H3 receptor; assay: as §1, with “H3” for “H1”, “coexpressing Galphai2,Gbeta1gamma2 and” for “coexpressing”; assay type: functional
Histamine H2 receptor [16] = molecular target: T2, Histamine H2 receptor; assay: Intrinsic activity at human recombinant histamine H2 receptor-Gsalphas fusion protein expressed in Sf9 cells preincubated for 2 mins before [gamma32P]GTP addition measured after 20 mins by steady-state GTPase activity assay relative to histamine
Histamine H4 receptor [17] = molecular target: T1, Histamine H4 receptor; assay: as §2, with “H4 receptor-RGS19” for “H2 receptor-Gsalphas”, “cells coexpressing Galphai2,Gbeta1gamma2” for “cells”; assay type: functional

T2 sequence (P25021 whole entry, the tested form may be a part): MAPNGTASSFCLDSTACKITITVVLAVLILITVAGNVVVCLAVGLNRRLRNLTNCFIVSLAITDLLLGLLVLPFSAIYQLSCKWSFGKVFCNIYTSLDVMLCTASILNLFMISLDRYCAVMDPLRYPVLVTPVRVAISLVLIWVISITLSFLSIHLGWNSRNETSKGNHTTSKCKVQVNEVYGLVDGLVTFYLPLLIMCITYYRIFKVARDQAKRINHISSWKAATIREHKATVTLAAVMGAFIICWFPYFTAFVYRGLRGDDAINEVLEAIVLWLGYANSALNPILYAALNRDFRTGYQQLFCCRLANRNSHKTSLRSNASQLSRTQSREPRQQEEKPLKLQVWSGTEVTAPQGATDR
Chain of Histamine H1 receptor (Homo sapiens) (P35367 whole entry, the tested form may be a part): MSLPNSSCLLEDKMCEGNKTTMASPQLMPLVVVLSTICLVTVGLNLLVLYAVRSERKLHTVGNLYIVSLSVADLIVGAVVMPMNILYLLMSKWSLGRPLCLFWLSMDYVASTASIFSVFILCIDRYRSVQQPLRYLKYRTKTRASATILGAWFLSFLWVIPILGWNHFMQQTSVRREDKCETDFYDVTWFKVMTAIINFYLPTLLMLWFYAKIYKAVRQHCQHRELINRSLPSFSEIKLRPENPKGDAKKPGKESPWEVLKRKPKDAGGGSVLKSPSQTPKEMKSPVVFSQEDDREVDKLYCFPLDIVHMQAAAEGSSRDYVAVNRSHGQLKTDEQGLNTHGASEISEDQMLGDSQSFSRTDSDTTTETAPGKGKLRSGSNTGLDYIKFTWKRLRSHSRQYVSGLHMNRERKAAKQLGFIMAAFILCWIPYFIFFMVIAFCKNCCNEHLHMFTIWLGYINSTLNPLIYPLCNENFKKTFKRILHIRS
T1 sequence (Q9H3N8 whole entry, the tested form may be a part): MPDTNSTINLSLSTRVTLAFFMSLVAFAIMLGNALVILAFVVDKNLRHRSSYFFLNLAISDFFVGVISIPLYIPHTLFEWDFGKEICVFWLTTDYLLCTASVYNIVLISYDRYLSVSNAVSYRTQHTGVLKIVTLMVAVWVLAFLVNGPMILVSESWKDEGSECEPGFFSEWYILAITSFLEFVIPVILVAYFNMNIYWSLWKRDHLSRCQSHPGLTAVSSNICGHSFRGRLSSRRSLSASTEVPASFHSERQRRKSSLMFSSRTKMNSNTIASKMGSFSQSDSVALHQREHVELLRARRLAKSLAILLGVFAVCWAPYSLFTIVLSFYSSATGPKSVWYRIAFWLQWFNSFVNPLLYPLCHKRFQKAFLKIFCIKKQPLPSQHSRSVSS
T3 sequence (Q9Y5N1 whole entry, the tested form may be a part): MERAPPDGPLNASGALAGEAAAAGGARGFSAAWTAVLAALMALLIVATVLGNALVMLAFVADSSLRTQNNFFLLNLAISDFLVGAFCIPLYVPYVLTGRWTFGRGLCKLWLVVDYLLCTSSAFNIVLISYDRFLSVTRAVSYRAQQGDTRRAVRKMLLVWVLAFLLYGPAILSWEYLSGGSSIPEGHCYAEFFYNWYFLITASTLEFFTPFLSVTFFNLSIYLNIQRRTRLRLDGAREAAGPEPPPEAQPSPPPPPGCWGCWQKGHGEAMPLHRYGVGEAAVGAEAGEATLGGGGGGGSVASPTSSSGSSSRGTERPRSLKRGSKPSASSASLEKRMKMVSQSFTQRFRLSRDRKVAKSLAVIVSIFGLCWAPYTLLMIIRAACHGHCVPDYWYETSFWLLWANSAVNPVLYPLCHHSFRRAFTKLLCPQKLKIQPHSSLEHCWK

SMILES | pKb [2] | Intrinsic activity (Histamine H2 receptor [3]) | pKb (Histamine H2 receptor [4]) | pKb (Histamine H3 receptor [5]) | pEC50 (Histamine H4 receptor [6]) | Intrinsic activity [7] | Intrinsic activity (Histamine H3 receptor [8]) | Intrinsic activity (Histamine H4 receptor [10]) | further results
S=C(NC1CCCCC1)N1CCC(c2cnc[nH]2)CC1 |  |  |  |  |  |  |  |  | Intrinsic activity (Histamine H4 receptor [1]): -0.95
N#C/N=C(/NCCNc1nccc(N)n1)NCCSc1ccccc1 | < 5 | -0.08 | < 5 | < 5 | inactive | 0.01 | -1.43 |  | 
CN/C(=N\CCSCc1nc[nH]c1C)NC#N |  |  | 5.77 |  |  |  |  |  | pKb (Histamine H4 receptor [9]): < 5
N#C/N=C(\NCCNc1ccnc(N)n1)NCCSc1ccccc1 | < 5 | -0.07 | < 5 | 5.54 |  | -0.02 | -1.03 | -0.83 | pKb (Histamine H4 receptor [9]): 5.43
CN/C(=N/C#N)NCCCNc1nc(N)n[nH]1 |  | -0.03 | < 5 |  | inactive |  |  |  | pEC50 [11]: inactive; pEC50 (Histamine H3 receptor [12]): inactive
N/C(=N\C(=O)CC(c1ccccc1)c1ccccc1)NCCCc1ccccn1 | 5.41 |  |  |  |  | 0.1 |  |  | Intrinsic activity (Histamine H3 receptor [13]): -0.44; pKb (Histamine H2 receptor [14]): 5.68; pKb (Histamine H3 receptor [15]): 5.35; Intrinsic activity (Histamine H2 receptor [16]): 0; pKb (Histamine H4 receptor [17]): < 5
N#C/N=C(/NCCCNc1ccccn1)NCCSc1ccccc1 | < 5 | -0.12 | < 5 | < 5 |  | 0.02 | -0.21 | -0.1 | pKb (Histamine H4 receptor [9]): < 5
Cc1nccn1CCCCCN/C(=N\C#N)NCCSc1ccccc1 | < 5 | -0.08 | < 5 | < 5 |  | 0.03 | -0.42 | -0.05 | pKb (Histamine H4 receptor [9]): < 5
N/C(=N\C(=O)CC(c1ccccc1)c1ccccc1)NCCCc1cccnc1 | 5.04 |  |  |  |  | 0.06 |  |  | Intrinsic activity (Histamine H3 receptor [13]): -0.14; pKb (Histamine H2 receptor [14]): 6.14; pKb (Histamine H3 receptor [15]): < 5; Intrinsic activity (Histamine H2 receptor [16]): -0.16; pKb (Histamine H4 receptor [17]): < 5
CC(CC(=O)/N=C(\N)NCCCc1ccccc1)c1ccccc1 (stereo not given) | 5.05 |  |  |  |  | -0.02 |  |  | Intrinsic activity (Histamine H3 receptor [13]): -0.19; pKb (Histamine H2 receptor [14]): 5.89; pKb (Histamine H3 receptor [15]): < 5; Intrinsic activity (Histamine H2 receptor [16]): -0.1; pKb (Histamine H4 receptor [17]): < 5
N#C/N=C(/NCCCCc1c[nH]cn1)NCCSc1ccccc1 |  |  |  | 6.14 |  | 7% | -0.52 | 0.88 | EC50 (Histamine H4 receptor [6]): 37.2 nM
N/C(=N\C(=O)CC(c1ccccc1)c1ccccc1)NCCCc1ccncc1 | < 5 |  |  |  |  | 0.08 |  |  | Intrinsic activity (Histamine H3 receptor [13]): -0.08; pKb (Histamine H2 receptor [14]): 6.14; pKb (Histamine H3 receptor [15]): 5.06; Intrinsic activity (Histamine H2 receptor [16]): -0.12; pKb (Histamine H4 receptor [17]): < 5
N#C/N=C(/NCCCCNc1nc(N)n[nH]1)NCCSc1ccccc1 |  | -0.09 | < 5 |  | inactive |  |  |  | pEC50 [11]: inactive; pEC50 (Histamine H3 receptor [12]): inactive
CN/C(=N/C#N)NCCCCc1nc(N)n[nH]1 |  | 0.31 | < 5 |  | inactive |  |  |  | pEC50 [11]: inactive; pEC50 (Histamine H3 receptor [12]): inactive
CN/C(=N/C#N)NCCCCCn1ccnc1C | < 5 | -0.07 | < 5 | < 5 | inactive | -0.01 | -0.26 | 0.06 | 
